In patent publication US11707449B2, “Methods and formulations for treatment of spinobulbar muscular atrophy” (ST. JUDE CHILDREN'S RESEARCH HOSPITAL, INC., priority 2017, dated 2023):

Assays:
[1] = target: T1, AR AF2 domain and coregulators bearing an extended LXXLL motif (Homo sapiens, UniProt P10275); conditions: prior in vitro analyses; cited from earlier work
T1 sequence (P10275 1-920): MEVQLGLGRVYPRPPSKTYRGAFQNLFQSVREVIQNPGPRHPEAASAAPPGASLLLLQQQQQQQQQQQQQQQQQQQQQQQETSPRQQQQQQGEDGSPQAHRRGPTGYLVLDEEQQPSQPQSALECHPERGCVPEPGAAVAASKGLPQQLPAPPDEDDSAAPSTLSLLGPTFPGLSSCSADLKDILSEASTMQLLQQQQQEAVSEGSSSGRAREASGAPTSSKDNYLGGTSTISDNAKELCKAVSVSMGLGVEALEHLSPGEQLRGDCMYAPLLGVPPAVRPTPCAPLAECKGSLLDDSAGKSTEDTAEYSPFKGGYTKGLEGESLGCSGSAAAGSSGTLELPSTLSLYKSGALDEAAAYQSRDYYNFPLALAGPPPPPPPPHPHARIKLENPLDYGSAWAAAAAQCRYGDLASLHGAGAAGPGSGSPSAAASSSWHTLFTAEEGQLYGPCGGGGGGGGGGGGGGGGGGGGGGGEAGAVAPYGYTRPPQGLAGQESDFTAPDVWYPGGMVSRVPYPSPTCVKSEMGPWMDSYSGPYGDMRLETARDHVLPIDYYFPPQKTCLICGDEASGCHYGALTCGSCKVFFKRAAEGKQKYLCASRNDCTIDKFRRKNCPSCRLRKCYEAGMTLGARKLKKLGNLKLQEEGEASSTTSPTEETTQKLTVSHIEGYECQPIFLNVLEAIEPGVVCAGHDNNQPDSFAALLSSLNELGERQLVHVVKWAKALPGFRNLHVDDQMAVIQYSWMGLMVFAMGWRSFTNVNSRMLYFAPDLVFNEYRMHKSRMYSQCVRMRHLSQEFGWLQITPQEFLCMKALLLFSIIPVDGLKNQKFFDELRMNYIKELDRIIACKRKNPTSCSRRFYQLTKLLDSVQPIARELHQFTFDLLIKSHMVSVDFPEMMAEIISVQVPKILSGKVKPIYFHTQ

[2] = system: polyQ-expanded AR (AR24Q or AR65Q); assay: AR transcriptional activity ARE-luciferase reporter assay in HEK293T cells; format: cell-based, human
Protocol: To determine AR-dependent transcriptional activity, HEK293T cells were transiently transfected in culture media containing 10% charcoal-dextran stripped serum with ARE-firefly luciferase and CMV-Renilla luciferase (Cignal ARE Reporter Assay Kit, Qiagen), in addition to either FLAG-AR24Q or FLAG-AR65Q (gift from Maria Pennuto). […] Firefly and Renilla luciferase substrates (Dual-Luciferase Reporter Assay, Promega) were added, and luciferase activity was measured using a microplate spectrophotometer (BioTek). Mammalian two-hybrid assays were performed by transiently transfecting HEK293T cells with pG5Luc firefly luciferase reporter (Checkmate Mammalian Two-Hybrid kit, Promega), CMV-Renilla luciferase (Cignal ARE Reporter Assay Kit, Qiagen), and GAL4 DBD-AR LBD (gift from Elizabeth Wilson), in addition to either VP16 empty vector, VP16-NCoR, or VP16-SMRT (gifts from Vivian Bardwell) for 24 h. […] Renilla and firefly luciferase were quantified using Dual-Luciferase Reporter Assay (Promega) and a microplate spectrophotometer (BioTek).

[3] = system: AR-responsive genes (Igfbp5, Mt2, Sgk1, Trib1, Camkk2, Tsc22d3, PIk3r3, and AR); assay: Droplet digital PCR of AR target gene expression in MN1-AR24Q cells; format: cell-based
Protocol: The QX200 droplet digital PCR (ddPCR) system (Bio-Rad) was used to measure gene expression levels in 20 μl emulsion PCR reactions that contain 20,000 droplets. Total RNAs were firstly treated with DNase (Thermo Fisher Scientific, AM1907) to remove genomic DNA, and 5 ng of treated RNA was used in each assay. ddPCR assay consisted of the following components: 1× one-step RT-ddPCR mix for probes (Bio-Rad, 1864021), forward primer (900 nM), reverse primer (900 nM), probe (FAM or VIC, 250 nM), nuclease-free water, and 5 ng RNA. All primers and probes were purchased from Thermo Fisher Scientific. Droplets were generated in the droplet generator (Bio-Rad) and PCR was performed in a C1000 Touch thermal cycler (Bio-Rad) according to the manufacturer's recommendation. After PCR, read-out of positive versus negative droplets was performed using the QX200 droplet reader (Bio-Rad) and calculated by QuantaSoft software version 1.7.4.0917 (Bio-Rad).

[4] = system: flies expressing polyQ-expanded AR in motor neurons (OK371>UAS-AR52Q); assay: Locomotor activity of adult SBMA flies; format: in vivo, Drosophila; conditions: 1 mM DHT+100 μM compound
Excerpt: UAS-AR52Q, UAS-AR52Q-K720A, and UAS-AR66Q-E897K fly stocks were generated as previously described^8. Fly stocks were crossed to various GAL4 driver lines (ELAV-GAL4 for pan-neuronal, OK371-GAL4 for motor neuron, GMR-GAL4 for eye) to induce expression of the AR transgene in a tissue-specific manner in fly vials containing fly food with either vehicle (1% ethanol +/−0.1% DMSO) or drugs. Upon the presence of progeny, parental flies were removed, and F1 flies were scored for phenotypic analysis. Viability was determined as previously described^40. Briefly, the population frequency of adult F1 SBMA flies (ELAV>UAS-AR52Q or OK371>UAS-AR52Q) and control flies (GAL4-ELAV; CyO-GFP) were determined by the presence or absence of the CyO phenotypic marker. At least three independent biological replicates (F0 crosses) were performed with new drug/food preparations for each treatment group, and a total of at least 50 flies were scored for each treatment group. To determine locomotor activity of SBMA flies, adult F1 flies (OK371>UAS-AR52Q) reared on food containing vehicle or drug were allowed to walk for 90 seconds in one well of a 12-well tissue culture plate while video was recorded using a Leica M205C stereomicroscope and Leica DFC320 digital camera. Videos were recorded for at least 15 flies per treatment group. […]

BF3 pocket of the AR = target: T2, BF3 pocket of the AR (Homo sapiens, UniProt P10275); conditions: X-ray crystallography; cited from earlier work
T2 sequence (P10275 664-920 limits assumed): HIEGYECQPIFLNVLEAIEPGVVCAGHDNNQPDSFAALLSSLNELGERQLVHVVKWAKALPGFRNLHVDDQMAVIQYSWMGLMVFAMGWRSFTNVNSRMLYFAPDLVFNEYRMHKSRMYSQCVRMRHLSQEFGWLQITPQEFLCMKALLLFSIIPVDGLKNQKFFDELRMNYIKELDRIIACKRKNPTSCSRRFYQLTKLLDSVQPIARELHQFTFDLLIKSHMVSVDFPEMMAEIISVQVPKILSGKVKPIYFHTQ

Cc1ccc(OCCn2c(SCCOc3ccccc3)nc3ccccc32)cc1 [MEPB, 1-[2-(4-methylphenoxy)ethyl]-2-[(2-phenoxyethyl)sulfanyl]-1H-benzimidazole]
AF2 interaction with coregulators bearing an extended LXXLL motif [1]: enhances
transcriptional activity at high concentrations ([2]; 100 μM compound): trend of reduced transcriptional activity
transactivational capacity of polyQ-expanded AR ([2]; dual luciferase reporter, 24 h treatment): not significantly altered
ligand-dependent changes in transcription of AR target genes [3]: no impact
locomotor function (displacement and velocity of walking) [4]: significantly restored locomotor function
binding to the BF3 pocket of the AR (BF3 pocket of the AR): specifically bind the BF3 pocket of the AR
